Laboratory results published in patent US20260234159A1, “SMALL MOLECULE TREATMENT OF FATTY LIVER DISEASE AND HCC” (SCANDIEDGE THERAPEUTICS AB, priority 2023, published 2026).
pIC50: −log10 of the molar value.

How the values were obtained:
[1] = MTT cell viability after one week steatosis (ranking of target molecules); format: cell-based, human; conditions: human, HepG2 cells (wild type); HepG2, 10 μM, one week steatosis induce media, MTT; Control 100.00
In short: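 HepG2 cells, 60,000 per well, kept one week in steatosis medium (high-glucose DMEM, 10 μg/ml insulin, 10 μM T0901317) with 10 μM compound. Medium changed at day 0, 3 and 5. Viability measured by MTT.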

[2] = system: HepG2 cells; assay: MTT cell viability / IC50 in growth media; format: cell-based, human; conditions: for pIC50: Homo sapiens, 48 h, HepG2, treatment for 2 days, 30 μM to 30 nM
[3] = MTT cell viability / IC50 in growth media; format: cell-based, human; conditions: human, HepG2 cells, 10 μM; for viability at 2 days, 10 µM: treatment for 2 days
[4] = In vivo toxicological study in rats: haematology; parameters: species or system rats of the Wistar strain
Protocol: Forty-two male and forty-two female rats of the Wistar strain were allocated to the study. Three groups of three males and three females were given doses of 30, 100 and 300 mg/kg of target compounds (Table 8). The vehicle was 1.5 w/w % HPMC, 1.5 w/w % PS80 in 10 mM PBS, pH 7 and dose volume were 5 mL/kg. The animals were acclimatised at least 14 day prior to the study and exposed to a 12 hours light, 12 hours dark light cycle. The formulations were administered via oral gavage. Administration occurred once daily in the morning for seven consecutive days. Blood for scheduled haematology and plasma chemistry were taken at necropsy. For plasma chemistry, 0.6 ml blood (lithium heparin) per animal and for haematology, 0.5 ml blood (K2EDTA) per animal. The blood and plasma were analysed using Exigo analyzer and Vetscan equipment. Blood was analysed within 60 min of sampling. On the morning of analysis, the Exigo analyzer was checked against a reference sample provided by the manufacturer, and a control sample analysis cycle was performed (Table 9).

[5] = female, 30 mg/kg oral daily 7 d
[6] = female, 100 mg/kg oral daily 7 d
[7] = female, 300 mg/kg oral daily 7 d

N#Cc1c(NC(=O)c2cccc3ccccc23)sc2c1CCN(C(=O)Nc1ccccc1OC(F)(F)F)C2 [PKL-A159]
viability at 1 week, 10 µM [1]: 2.33% | pIC50 [2]: 5.01 | viability at 2 days, 10 µM [3]: 61.6% | GRAN [4, 5]: 0.80 10^9/l | HCT [4, 5]: 40.3% | HGB [4, 5]: 14.4 g/dL | LYM [4, 5]: 4.9 10^9/l | MCH [4, 5]: 19.4 pg | MCHC [4, 5]: 35.7 g/dL | MCV [4, 5]: 54.5 fL | MONO [4, 5]: 0.13 10^9/l | PLT [4, 5]: 1028 10^9/l | RBC [4, 5]: 7.39 10^12/l | RDW % [4, 5]: 14.1% | WBC [4, 5]: 5.9 10^9/l | GRAN [4, 6]: 0.77 10^9/l | HCT [4, 6]: 41.2% | HGB [4, 6]: 14.5 g/dL | LYM [4, 6]: 5.8 10^9/l | MCH [4, 6]: 18.9 pg | MCHC [4, 6]: 35.2 g/dL | MCV [4, 6]: 53.8 fL | MONO [4, 6]: 0.10 10^9/l | PLT [4, 6]: 994 10^9/l | RBC [4, 6]: 7.66 10^12/l | RDW % [4, 6]: 14.6% | WBC [4, 6]: 6.7 10^9/l | GRAN [4, 7]: 0.93 10^9/l | HCT [4, 7]: 41.1% | HGB [4, 7]: 14.5 g/dL | LYM [4, 7]: 5.3 10^9/l | MCH [4, 7]: 19.4 pg | MCHC [4, 7]: 35.2 g/dL | MCV [4, 7]: 55.2 fL | MONO [4, 7]: 0.17 10^9/l | PLT [4, 7]: 808 10^9/l | RBC [4, 7]: 7.45 10^12/l | RDW % [4, 7]: 14.4% | WBC [4, 7]: 6.4 10^9/l | GRAN ([4]; male, 30 mg/kg oral daily 7 d): 1.03 10^9/l | HCT ([4]; male, 30 mg/kg oral daily 7 d): 40.9% | HGB ([4]; male, 30 mg/kg oral daily 7 d): 14.5 g/dL | LYM ([4]; male, 30 mg/kg oral daily 7 d): 2.8 10^9/l | MCH ([4]; male, 30 mg/kg oral daily 7 d): 19.9 pg | MCHC ([4]; male, 30 mg/kg oral daily 7 d): 35.4 g/dL | MCV ([4]; male, 30 mg/kg oral daily 7 d): 56.3 fL | MONO ([4]; male, 30 mg/kg oral daily 7 d): 0.10 10^9/l | PLT ([4]; male, 30 mg/kg oral daily 7 d): 1117 10^9/l | RBC ([4]; male, 30 mg/kg oral daily 7 d): 7.26 10^12/l | RDW % ([4]; male, 30 mg/kg oral daily 7 d): 15.1% | WBC ([4]; male, 30 mg/kg oral daily 7 d): 3.9 10^9/l | GRAN ([4]; male, 100 mg/kg oral daily 7 d): 1.43 10^9/l | HCT ([4]; male, 100 mg/kg oral daily 7 d): 42.4% | HGB ([4]; male, 100 mg/kg oral daily 7 d): 14.9 g/dL | LYM ([4]; male, 100 mg/kg oral daily 7 d): 7.1 10^9/l | MCH ([4]; male, 100 mg/kg oral daily 7 d): 19.9 pg | MCHC ([4]; male, 100 mg/kg oral daily 7 d): 35.3 g/dL | MCV ([4]; male, 100 mg/kg oral daily 7 d): 56.4 fL | MONO ([4]; male, 100 mg/kg oral daily 7 d): 0.23 10^9/l | PLT ([4]; male, 100 mg/kg oral daily 7 d): 974 10^9/l | RBC ([4]; male, 100 mg/kg oral daily 7 d): 7.51 10^12/l | RDW % ([4]; male, 100 mg/kg oral daily 7 d): 15.4% | WBC ([4]; male, 100 mg/kg oral daily 7 d): 8.7 10^9/l | GRAN ([4]; male, 300 mg/kg oral daily 7 d): 1.00 10^9/l | HCT ([4]; male, 300 mg/kg oral daily 7 d): 42.4% | HGB ([4]; male, 300 mg/kg oral daily 7 d): 14.8 g/dL | LYM ([4]; male, 300 mg/kg oral daily 7 d): 4.6 10^9/l | MCH ([4]; male, 300 mg/kg oral daily 7 d): 19.6 pg | MCHC ([4]; male, 300 mg/kg oral daily 7 d): 35.1 g/dL | MCV ([4]; male, 300 mg/kg oral daily 7 d): 55.8 fL | MONO ([4]; male, 300 mg/kg oral daily 7 d): 0.10 10^9/l | PLT ([4]; male, 300 mg/kg oral daily 7 d): 1200 10^9/l | RBC ([4]; male, 300 mg/kg oral daily 7 d): 7.59 10^12/l | RDW % ([4]; male, 300 mg/kg oral daily 7 d): 15.3% | WBC ([4]; male, 300 mg/kg oral daily 7 d): 5.7 10^9/l

N#Cc1c(NC(=O)c2cccc3ccccc23)sc2c1CCN(CC(=O)Nc1cccc(Br)c1)C2 [PKL-B171]
viability at 1 week, 10 µM [1]: 22% | pIC50 [2]: 4.66 | cell viability of HepG2 cells ([2]; especially in cancerous media): particularly low cell viability | viability at 4 day, 10 µM ([3]; day 4): 1.1% | viability at 2 days, 10 µM [3]: 67.4% | GRAN [4, 5]: 0.77 10^9/l | HCT [4, 5]: 43.0% | HGB [4, 5]: 15.3 g/dL | LYM [4, 5]: 4.6 10^9/l | MCH [4, 5]: 18.9 pg | MCHC [4, 5]: 35.6 g/dL | MCV [4, 5]: 53.3 fL | MONO [4, 5]: 0.13 10^9/l | PLT [4, 5]: 933 10^9/l | RBC [4, 5]: 8.08 10^12/l | RDW % [4, 5]: 14.6% | WBC [4, 5]: 5.5 10^9/l | GRAN [4, 6]: 0.77 10^9/l | HCT [4, 6]: 40.8% | HGB [4, 6]: 14.4 g/dL | LYM [4, 6]: 4.4 10^9/l | MCH [4, 6]: 19.7 pg | MCHC [4, 6]: 35.4 g/dL | MCV [4, 6]: 55.5 fL | MONO [4, 6]: 0.10 10^9/l | PLT [4, 6]: 1106 10^9/l | RBC [4, 6]: 7.36 10^12/l | RDW % [4, 6]: 14.1% | WBC [4, 6]: 5.2 10^9/l | GRAN [4, 7]: 1.23 10^9/l | HCT [4, 7]: 40.5% | HGB [4, 7]: 14.4 g/dL | LYM [4, 7]: 5.7 10^9/l | MCH [4, 7]: 19.1 pg | MCHC [4, 7]: 35.7 g/dL | MCV [4, 7]: 53.5 fL | MONO [4, 7]: 0.17 10^9/l | PLT [4, 7]: 1027 10^9/l | RBC [4, 7]: 7.55 10^12/l | RDW % [4, 7]: 14.2% | WBC [4, 7]: 7.1 10^9/l | GRAN ([4]; male, 30 mg/kg oral daily 7 d): 1.17 10^9/l | HCT ([4]; male, 30 mg/kg oral daily 7 d): 40.6% | HGB ([4]; male, 30 mg/kg oral daily 7 d): 14.4 g/dL | LYM ([4]; male, 30 mg/kg oral daily 7 d): 6.3 10^9/l | MCH ([4]; male, 30 mg/kg oral daily 7 d): 19.7 pg | MCHC ([4]; male, 30 mg/kg oral daily 7 d): 35.4 g/dL | MCV ([4]; male, 30 mg/kg oral daily 7 d): 55.5 fL | MONO ([4]; male, 30 mg/kg oral daily 7 d): 0.17 10^9/l | PLT ([4]; male, 30 mg/kg oral daily 7 d): 991 10^9/l | RBC ([4]; male, 30 mg/kg oral daily 7 d): 7.31 10^12/l | RDW % ([4]; male, 30 mg/kg oral daily 7 d): 14.8% | WBC ([4]; male, 30 mg/kg oral daily 7 d): 7.7 10^9/l | GRAN ([4]; male, 100 mg/kg oral daily 7 d): 1.30 10^9/l | HCT ([4]; male, 100 mg/kg oral daily 7 d): 43.2% | HGB ([4]; male, 100 mg/kg oral daily 7 d): 15.2 g/dL | LYM ([4]; male, 100 mg/kg oral daily 7 d): 6.6 10^9/l | MCH ([4]; male, 100 mg/kg oral daily 7 d): 20.1 pg | MCHC ([4]; male, 100 mg/kg oral daily 7 d): 35.2 g/dL | MCV ([4]; male, 100 mg/kg oral daily 7 d): 57.1 fL | MONO ([4]; male, 100 mg/kg oral daily 7 d): 0.17 10^9/l | PLT ([4]; male, 100 mg/kg oral daily 7 d): 981 10^9/l | RBC ([4]; male, 100 mg/kg oral daily 7 d): 7.57 10^12/l | RDW % ([4]; male, 100 mg/kg oral daily 7 d): 14.9% | WBC ([4]; male, 100 mg/kg oral daily 7 d): 8.1 10^9/l | GRAN ([4]; male, 300 mg/kg oral daily 7 d): 1.40 10^9/l | HCT ([4]; male, 300 mg/kg oral daily 7 d): 43.6% | HGB ([4]; male, 300 mg/kg oral daily 7 d): 15.4 g/dL | LYM ([4]; male, 300 mg/kg oral daily 7 d): 7.0 10^9/l | MCH ([4]; male, 300 mg/kg oral daily 7 d): 19.6 pg | MCHC ([4]; male, 300 mg/kg oral daily 7 d): 35.4 g/dL | MCV ([4]; male, 300 mg/kg oral daily 7 d): 55.4 fL | MONO ([4]; male, 300 mg/kg oral daily 7 d): 0.20 10^9/l | PLT ([4]; male, 300 mg/kg oral daily 7 d): 1115 10^9/l | RBC ([4]; male, 300 mg/kg oral daily 7 d): 7.87 10^12/l | RDW % ([4]; male, 300 mg/kg oral daily 7 d): 15.1% | WBC ([4]; male, 300 mg/kg oral daily 7 d): 8.6 10^9/l
